Measured values as given in patent US10183006B2, “Methods of therapeutic monitoring of nitrogen scavenging drugs” (Horizon Therapeutics, LLC, priority 2011, dated 2019).
Each block holds one molecule with its values, some of them ahead of it.

Assays:
[1] = Short term switch over comparison of NaPBA and HPN-100 in controlling ammonia, 24-hr serial sampling, pediatric UCD patients; type: in vivo, human; conditions: end of treatment with HPN-100; 11 pediatric UCD patients ages 6-17
Text: (§1) The relationship between reducing ammonia burden by maintaining fasting ammonia at or close to half ULN and neuropsychological outcomes in pediatric UCD patients was explored in clinical trials. […] These patients underwent 24-hr serial sample collection in a confined setting where the last sample at 24 hr was considered fasting and under supervision of the study personnel. At the end of treatment with HPN-100 the average fasting ammonia at 24-hr time point was 15.5 μmol/L or less than half ULN, indicating good clinical control. These 11 patients along with another 15 pediatric patients were enrolled in two long term studies and received HPN-100 for 12 months, during which monthly fasting ammonia were collected. At the time of enrollment and at the end of the study, all patients underwent assessment for neuropsychological outcomes including the following: BRIEF (Behavior Rating Inventory of Executive Function) to assess day-to-day executive functioning, CBCL (Child Behavior Checklist) to evaluate internalizing (e.g., mood/anxiety) and externalizing behaviors, and WASI (Wechsler Abbreviated Scale of Intelligence) to estimate of intellectual ability.

[2] = Two long term studies, HPN-100 for 12 months in pediatric UCD patients: monthly fasting ammonia and hyperammonemia episodes; type: in vivo, human
Text: as §1, with “ability. […]” for “ability.”

[3] = Neuropsychological outcomes (BRIEF, CBCL, WASI) after 12 months HPN-100 in pediatric UCD patients; type: in vivo, human
Text: as §1
In pediatric patients, WASI and CBCL scores were stable in comparison to baseline. The majority of the BRIEF subscales at baseline were at or close to 65, consistent with borderline and/or clinically significant dysfunction. Among 22 pediatric subjects who completed the neuropsychological testing at 12 months, all BRIEF domains were improved (lower T scores) with means (SD) at end of study compared to baseline for Behavioral Regulation Index 53.7 (9.79) vs. 60.4 (14.03) (p<0.05); Metacognition Index 57.5 (9.84) vs. 67.5 (13.72) (p<0.001), and Global Executive Scale 56.5 (9.71) vs. 66.2 (14.02) (p<0.001).

[4] = Relationship between PAA levels and neurological AEs in UCD patients (switchover and 12-month protocols); type: in vivo, human; conditions: short term switchover
[5] = Population PK model (NONMEM) and Monte Carlo dosing simulations in UCD patients; parameters: species or system human
Description: Diagnostic plots and statistical comparisons were used to select among candidate models, and covariates were assessed by graphical analyses and covariate modeling.

[6] = HPN-100 in subjects with hepatic impairment with cirrhosis and healthy adults (Study UP 1204-002): urinary excretion; type: in vivo, human; conditions: for PAGN Proportion excreted post-24 hours (%), of total PAGN eliminated over 48 hours: after dosing on day 1
Description: (§2) To determine its pharmacokinetic (PK) and pharmacodynamic (PD) profile in patients with liver disease, clinical testing was conducted in which HPN-100 was administered orally as a single dose (100 mg/kg/day on day 1), and twice daily for 7 consecutive days (200 mg/kg/day on days 8 through 14, in two doses of 100 mg/kg per dose), to subjects with hepatic impairment with cirrhosis (Child-Pugh scores of A, B, or C) and to a gender and age-matched control group of healthy adults with normal hepatic function. On day 15, subjects received a single dose of HPN-100 (100 mg/kg). PK blood samples were taken pre-dose, at 15 and 30 minutes post-dose, and at 1, 1.5, 2, 3, 4, 6, 8, 12, and 24 hours post-dose on days 1, 8, and 15, and at 48 hours after dosing on days 1 and 15. On days 9-14, blood samples were taken pre-morning dose and at 2 hours post-morning dose. Urine was collected 0-4, 4-8, 8-12, and 12-24 hours post-dose on days 1, 8, and 15, and at 24-48 hours post-dose on days 1 and 15.

[7] = Illustrative UCD patient cases (Patients A, B, C): blood ammonia under nitrogen scavenging drug
Description: In certain embodiments of the methods disclosed herein, blood samples used for measuring fasting blood ammonia levels and/or ULN blood ammonias are venous blood samples. In certain embodiments, a blood sample is a plasma blood sample. Any methods known in the art may be used to obtain a plasma blood sample. For example, blood from a subject may be drawn into a tube containing heparin or ethylenediaminetetraacetic acid (EDTA). In certain embodiments, the sample can be placed on ice and centrifuged to obtain plasma within 15 minutes of collection, stored at 2-8° C. […] In other embodiments, the blood plasma sample is snap frozen, stored at ≤−18° C. […] In certain embodiments, blood samples are taken in a laboratory or hospital setting. In certain embodiments, a single fasting blood sample is used to measure fasting blood ammonia level. However, in other embodiments, multiple fasting blood samples may be obtained. In certain embodiments, a subject's blood ammonia level may be monitored throughout the day. Further, in certain embodiments, the methods disclosed herein comprise an additional step of obtaining one or more blood samples from a subject prior to or after measuring fasting blood ammonia level.
Measurement of ammonia levels in a fasting blood sample is carried out using techniques known in the art. For example, ammonia levels may be measured using a colorimetric reaction or an enzymatic reaction. In certain embodiments, a colorimetric reaction may involve the use of bromophenol blue as an ammonia indicator. In these embodiments, ammonia may react with bromophenol blue to yield a blue dye. In certain embodiments, an enzymatic reaction may involve glutamate dehydrogenase catalyzing the reductive amination of 2-oxoglutarate with NH^4+ and NADPH to form glutamate and NADP^+. The formation of NADP^+ formed is directly proportional to the amount of ammonia present in the blood sample. Therefore, the concentration of ammonia is measured based on a decrease in absorbance.
Initial dosage is determined based on body surface area or as otherwise instructed according to HPN-100 drug labeling.

[8] = HPN-100 in subjects with hepatic impairment with cirrhosis and healthy adults: plasma metabolites; type: in vivo, human; conditions: all plasma samples, all subject groups
Description: as §2

[9] = after dosing on day 1 (0-48 hours), Child-Pugh A
[10] = after dosing on day 1 (0-48 hours), Child-Pugh B
[11] = after dosing on day 1 (0-48 hours), Child-Pugh C
[12] = after dosing on day 1 (0-48 hours), Healthy Volunteers
[13] = Patient A, 3 mL dose with each meal

- alternative HPN-100 metabolite level in plasma [8]: below the limit of quantification
Molecule: O=C(O)CNC(=O)Cc1ccccc1 [PAG, phenylacetyl glycine]

- alternative HPN-100 metabolite level in plasma [8]: below the limit of quantification
Molecule: O=C(O)CNC(=O)CCCc1ccccc1 [PBG, phenylbutyryl glycine]

- alternative HPN-100 metabolite level in plasma [8]: below the limit of quantification
Molecule: NC(=O)CC[C@H](NC(=O)CCCc1ccccc1)C(=O)O [PBGN, phenylbutyryl glutamine]

Second part, the molecule before the results:

Molecule: O=C(CCCc1ccccc1)OCC(COC(=O)CCCc1ccccc1)OC(=O)CCCc1ccccc1 [HPN-100, glyceryl tri-[4-phenylbutyrate]]
- average fasting ammonia at 24-hr time point [1]: 15.5 µmol/L
- episodes of acute hyperammonemia ([2]; during 12 month treatment, pediatric UCD patients, 9 in the 12 months before enrollment): 5
- peak ammonia, mean ([2]; during the 12 month study, 233 μmol/L before enrollment): 166 µmol/L
- BRIEF Behavioral Regulation Index, T score mean (SD) at end of study ([3]; 22 pediatric subjects, baseline 60.4 (14.03), p<0.05): 53.7 (9.79)
- BRIEF Global Executive Scale, T score mean (SD) at end of study ([3]; 22 pediatric subjects, baseline 66.2 (14.02), p<0.001): 56.5 (9.71)
- BRIEF Metacognition Index, T score mean (SD) at end of study ([3]; 22 pediatric subjects, baseline 67.5 (13.72), p<0.001): 57.5 (9.84)
- WASI and CBCL scores in comparison to baseline ([3]; pediatric patients): stable
- relationship between neurological AEs and PAA levels [4]: No statistically significant relationship
- fractional presystemic metabolism of PBA ([5]; adults): 43%
- slower PBA absorption when delivered as GPB vs. NaPBA ([5]; final popPK model): ~60%
- fractional presystemic metabolism of PBA ([5]; pediatric patients): 14%
- urinary PAGN Amount Excreted ([6]; after dosing on day 1 (0-24 hours), Child-Pugh A (n = 8)): 15553 µmol
- urinary PAGN Amount Excreted ([6]; after dosing on day 1 (0-24 hours), Child-Pugh B (n = 8)): 16847 µmol
- urinary PAGN Amount Excreted ([6]; after dosing on day 1 (0-24 hours), Child-Pugh C (n = 8)): 19291 µmol
- urinary PAGN Amount Excreted ([6]; after dosing on day 1 (0-24 hours), Healthy Volunteers (n = 8)): 14903 µmol
- PAGN Mole % of dose excreted [6, 9]: 47.1 Mole %
- urinary PAGN Amount Excreted [6, 9]: 18386 µmol
- PAGN Mole % of dose excreted [6, 10]: 44.9 Mole %
- urinary PAGN Amount Excreted [6, 10]: 19902 µmol
- PAGN Mole % of dose excreted [6, 11]: 48.5 Mole %
- urinary PAGN Amount Excreted [6, 11]: 20854 µmol
- PAGN Mole % of dose excreted [6, 12]: 42.2 Mole %
- urinary PAGN Amount Excreted [6, 12]: 17869 µmol
- PAGN Proportion excreted post-24 hours (%), of total PAGN eliminated over 48 hours ([6]; Child-Pugh A): 15.5%
- PAGN Proportion excreted post-24 hours (%), of total PAGN eliminated over 48 hours ([6]; Child-Pugh B): 14.5%
- PAGN Proportion excreted post-24 hours (%), of total PAGN eliminated over 48 hours ([6]; Child-Pugh C): 8.8%
- PAGN Proportion excreted post-24 hours (%), of total PAGN eliminated over 48 hours ([6]; Healthy Volunteers): 16.9%
- urinary PAGN Amount Excreted ([6]; after dosing on day 8 (0-12 hours), after first 100 mg/kg morning dose, Child-Pugh A): 16068 µmol
- urinary PAGN Amount Excreted ([6]; after dosing on day 8 (0-12 hours), after first 100 mg/kg morning dose, Child-Pugh B): 13179 µmol
- urinary PAGN Amount Excreted ([6]; after dosing on day 8 (0-12 hours), after first 100 mg/kg morning dose, Child-Pugh C): 15428 µmol
- urinary PAGN Amount Excreted ([6]; after dosing on day 8 (0-12 hours), after first 100 mg/kg morning dose, Healthy Volunteers): 10195 µmol
- PAGN Mole % of dose excreted ([6]; after dosing on day 8 (0-12 hours), Child-Pugh A): 40.6 Mole %
- PAGN Mole % of dose excreted ([6]; after dosing on day 8 (0-12 hours), Child-Pugh B): 29.9 Mole %
- PAGN Mole % of dose excreted ([6]; after dosing on day 8 (0-12 hours), Child-Pugh C): 44.6 Mole %
- PAGN Mole % of dose excreted ([6]; after dosing on day 8 (0-12 hours), Healthy Volunteers): 24.5 Mole %
- PAGN Mole % of dose excreted ([6]; after dosing on day 15 (0-48 hours), % of the single morning dose of day 15, Child-Pugh A): 79.6 Mole %
- PAGN Mole % of dose excreted ([6]; after dosing on day 15 (0-48 hours), % of the single morning dose of day 15, Child-Pugh B): 58.2 Mole %
- PAGN Mole % of dose excreted ([6]; after dosing on day 15 (0-48 hours), % of the single morning dose of day 15, Child-Pugh C): 85.0 Mole %
- PAGN Mole % of dose excreted ([6]; after dosing on day 15 (0-48 hours), % of the single morning dose of day 15, Healthy Volunteers): 68.6 Mole %
- urinary PAGN Amount Excreted ([6]; after dosing on day 15 (0-48 hours), Child-Pugh A): 31431 µmol
- urinary PAGN Amount Excreted ([6]; after dosing on day 15 (0-48 hours), Child-Pugh B): 25152 µmol
- urinary PAGN Amount Excreted ([6]; after dosing on day 15 (0-48 hours), Child-Pugh C): 30752 µmol
- urinary PAGN Amount Excreted ([6]; after dosing on day 15 (0-48 hours), Healthy Volunteers): 28716 µmol
- average conversion of HPN-100 to PAGN ([6]; after single dose administration, cirrhosis and healthy volunteers): 40-50%
- HPN-100 dose administered excreted as PAGN ([6]; day 1): 42-49%
- HPN-100 dose administered excreted as PAGN ([6]; day 8): 25-45%
- HPN-100 dose administered excreted as PAGN ([6]; day 15): 58-85%
- effect of hepatic impairment on ammonia-scavenging ability ([6]; urinary PAGN excretion, Child-Pugh groups vs healthy volunteers): no significant effect
- fasting blood ammonia level ([7]; Patient A, adult UCD, 9 mL/day for at least 7 days, 52 μmol/L before treatment): 33 µmol/L
- average daily ammonia [7, 13]: 66 µmol/L
- maximum ammonia after dinner [7, 13]: 95 µmol/L
- fasting ammonia level ([7]; Patient A, 12 mL total or 4 mL TID for at least 7 days): 15 µmol/L
- fasting blood ammonia level ([7]; Patient B, 3.5 mL 3 times a day for at least 7 days): 17 µmol/L

Molecule: O=C([O-])c1ccccc1.[Na+] [sodium benzoate, reference compound]
- fasting blood ammonia level ([7]; Patient C, adult UCD, 15 g/day for at least 7 days, 77 μmol/L before treatment): 35 µmol/L
- fasting ammonia level ([7]; Patient C, 18 grams per day for at least 7 days): 15 µmol/L

Molecule: sodium phenylbutyrate [NaPBA, reference compound]
- relationship between neurological AEs and PAA levels [4]: No statistically significant relationship
- fractional presystemic metabolism of PBA ([5]; adults): 23%
- fractional presystemic metabolism of PBA ([5]; pediatric patients): 43%
- fasting blood ammonia level ([7]; Patient B, 11-year UCD patient, 24 pills per day, suspected noncompliant): 40 µmol/L
